# Assay results as given in patent US5047397A, “Linear analogs of atrial natriuretic peptides” (California Biotechnology Inc., priority 1988, dated 1991).
# Where a SMILES comes first, the peptide text is derived from it. Bridges are numbered along the chain shown (N, C = ends).
# Columns and labels:
# [1] = biological target: T1, specific ANP receptor sites on BASM or BAE cells (Bos taurus, UniProt P10730); experiment: Competitive displacement receptor binding of (125I)-rANP(126-150) on cultured cells; set-up: species or system bovine
# T1 construct: specific receptor sites on BASM or BAE cells; endogenous in cells; host or cells: cultured BASM and BAE cells
# T1 sequence (P10730 42-537): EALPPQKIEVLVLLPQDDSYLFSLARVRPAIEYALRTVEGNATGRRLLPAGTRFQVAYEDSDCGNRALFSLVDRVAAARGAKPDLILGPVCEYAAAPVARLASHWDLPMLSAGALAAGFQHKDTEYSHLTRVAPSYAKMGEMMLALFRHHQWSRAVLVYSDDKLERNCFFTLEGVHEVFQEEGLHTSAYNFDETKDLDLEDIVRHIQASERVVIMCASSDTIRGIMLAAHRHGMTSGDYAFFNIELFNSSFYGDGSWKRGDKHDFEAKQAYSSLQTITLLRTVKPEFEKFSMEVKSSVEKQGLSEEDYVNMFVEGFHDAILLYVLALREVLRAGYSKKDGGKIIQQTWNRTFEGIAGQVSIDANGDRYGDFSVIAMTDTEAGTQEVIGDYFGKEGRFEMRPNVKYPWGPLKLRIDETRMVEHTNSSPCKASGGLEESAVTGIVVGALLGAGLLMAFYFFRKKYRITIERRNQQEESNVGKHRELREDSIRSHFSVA
# From the text: Analogous "competitive displacement" receptor binding assays are considered commonplace in the art for examining specific ligand-receptor interactions.
# Assuming these ANP analogs act at one or more ANP receptor sites, then increased receptor affinity should reflect increased biological potency.
# anesthetized rats = experiment: Diuresis in anesthetized rats; assay type: in vivo, rat
# Procedure: In one set of examples, cannulae were placed in the left and right ureters and femoral vein of anesthetized rats and urine was collected from the ureters. Analog peptides were administered via the femoral vein. Prior to infusing the analog peptides, saline was infused for 30 minutes, urine was collected for 6 five-minute baseline periods and urine volume was determined gravimetrically. Following these baseline collection periods, various analog peptides were infused for 30 or 60 minutes and urine volume was measured in five-minute periods during infusion and for 60 minutes following infusion (at which time rats were returned to saline). Data was examined by averaging urine flow rates for six five-minute baseline control periods immediately preceding infusion, and comparing values during and after administration of peptides with the "baseline" control values. Responses to peptides are thus evaluated and plotted as the percent of baseline control responses. Specific examples are shown in FIGS. 3A-H. The error bars at the beginning of the graphs represent baseline values +standard deviations. Responses to peptides that are substantially above baseline ±SD can thus be interpreted as being statistically significant increases.
# [2] = system: isolated perfused rat kidney; experiment: Natriuresis and diuresis in the isolated perfused rat kidney; conditions: for FENa (fractional sodium excretion) / FF (filtration fraction) / GFR (glomerular filtration rate) / RVR (renal vascular resistance) / UNa V (urinary sodium excretion rate) / V (urine flow rate): N=4
# From the text: The results are in Table 2C.
# [3] = system: cortical-associated receptor sites of the kidney; experiment: Competition for specific (125I)-rANP(123-150) binding in the kidney; set-up: species or system rat; conditions: competitor 10^-7 M, tracer 4 × 10^-12 M, n=3
# [4] = [C] period of section D: AP57 10^-7 M present, before rANP(123-150)
structure (smiles),measurement,setting,value
"CC[C@H](C)[C@@H]1NC(=O)[C@H](CCCNC(=N)N)NC(=O)[C@H](CC(=O)O)NC(=O)[C@H]([C@@H](C)CC)NC(=O)[C@H](CCCNC(=N)N)NC(=O)CNC(=O)CNC(=O)[C@H](Cc2ccccc2)NC(=O)[C@@H](NC(=O)[C@H](CO)NC(=O)[C@H](CO)NC(=O)[C@@H](N)CCCNC(=N)N)CSSC[C@@H](C(N)=O)NC(=O)[C@H](C)NC(=O)CNC1=O [AP57, R-S-S-C-F-G-G-R-I-D-R-I-G-A-C-NH2] (H-RSSCFGGRIDRIGAC-NH2; disulfide 4-15)",Ki,"[1]; Table 2A, unit not given, in nM",8.2
same,"in vivo diuretic/natriuretic activity in rats, in words",anesthetized rats; dose not stated,natriuretic and diuretic activities
same,"natriuretic/diuretic activity in the isolated perfused rat kidney, in words",[2]; 10^-7 M,not active
same,FENa (fractional sodium excretion),"[2]; AP57 10^-7 M alone, mean ± SE",0.24 ± 0.08%
same,FF (filtration fraction),"[2]; AP57 10^-7 M alone, mean ± SE",1.37 ± 0.22%
same,GFR (glomerular filtration rate),"[2]; AP57 10^-7 M alone, mean ± SE",0.55 ± 0.07 mL/min
same,RVR (renal vascular resistance),"[2]; AP57 10^-7 M alone, mean ± SE",2.27 ± 0.17 mmHg/ml/min
same,UNa V (urinary sodium excretion rate),"[2]; AP57 10^-7 M alone, mean ± SE",0.17 ± 0.04 uEq/min
same,V (urine flow rate),"[2]; AP57 10^-7 M alone, mean ± SE",13.8 ± 2.0 µL/min
same,FENa (fractional sodium excretion),[2]; [4],0.18 ± 0.04%
same,FF (filtration fraction),[2]; [4],1.57 ± 0.27%
same,GFR (glomerular filtration rate),[2]; [4],0.65 ± 0.06 mL/min
same,RVR (renal vascular resistance),[2]; [4],2.21 ± 0.21 mmHg/ml/min
same,UNa V (urinary sodium excretion rate),[2]; [4],0.17 ± 0.05 uEq/min
same,V (urine flow rate),[2]; [4],16.3 ± 2.0 µL/min
same,"modulation of renal responses to rANP(123-150), in words",[2]; pretreatment of the isolated kidney with 10^-7 M AP57,increased the potency of rANP(123-150)
same,"RATIO OF BOUND/FREE (125I)-rANP(123-150), Whole Kidney",[3]; tracer alone 122 ± 46,1.27 ± 0.32
same,"RATIO OF BOUND/FREE (125I)-rANP(123-150), Outer Cortex",[3]; tracer alone 176 ± 23,1.68 ± 0.44
"CC[C@H](C)[C@@H]1NC(=O)[C@H](CCCNC(=N)N)NC(=O)[C@H](CC(=O)O)NC(=O)[C@H]([C@@H](C)CC)NC(=O)[C@H](CCCNC(=N)N)NC(=O)[C@@H](NC(=O)[C@H](CO)NC(=O)[C@H](CO)NC(=O)[C@@H](N)CCCNC(=N)N)CSSC[C@@H](C(=O)N[C@@H](CC(N)=O)C(=O)N[C@@H](CO)C(=O)N[C@@H](Cc2ccccc2)C(=O)N[C@@H](CCCNC(=N)N)C(=O)N[C@@H](Cc2ccc(O)cc2)C(=O)O)NC(=O)CNC(=O)[C@H](CC(C)C)NC(=O)CNC(=O)[C@H](CO)NC(=O)[C@H](CCC(N)=O)NC(=O)[C@H](C)NC(=O)CNC1=O [AP25, R--S--S--C--R--I--D--R--I--G--A--Q--S--G--L--G--C--N--S--F--R--Y] (H-RSSCRIDRIGAQSGLGCNSFRY-OH; disulfide 4-17)",Ki(app),"[1]; concentration of unlabeled peptide displacing 50% of maximal binding of 0.5 nM (125I)-rANP(126-150), BASM or BAE cells",8.62 nM
same,prevention of (125I)-rANP(126-150) binding to BASM cell-associated receptors (FIG. 2),"[1]; increasing concentrations of unlabeled peptide, BASM cells",effectively prevent
same,"urine flow rate (urine volume), diuretic response","anesthetized rats; infused at 5 mcg/min via femoral vein, versus baseline, FIG. 3",significantly increased
